Test results reported in PubChem BioAssay AID274 (DTP/NCI, 2004).
Values joined by “and” are separate entries in the source; they are usually repeats but may differ in a detail not shown here. Equal values may be shown once. Toxic doses and inconclusive results are not listed. The calls were made as follows: active = survival T/C of 150% or more; inactive = T/C below 125% in these data.

System: BDF1 mice, Lewis lung carcinoma iv, survival T/C
Test: NCI In Vivo Anticancer Drug Screen. Data for tumor model Lewis Lung Carcinoma (intravenous) in B6D2F1 (BDF1) mice
Settings: endpoint: median survival time, schedule: Q01DX009 (ip), higher = longer survival
Method: The antitumor activity of compounds was measured in mice bearing transplantable tumors. Survival or tumor size were measured and the results are expressed as the measurement made in the treated group (T) divided by the measurement made in the vehicle treated control group (C). The tumor model used in this assay is Lewis Lung Carcinoma (intravenous) in B6D2F1 (BDF1) mice

[1] = dose: 0.78 mg/kg/injection, vehicle: saline
[2] = dose: 1.56 mg/kg/injection, vehicle: saline
[3] = dose: 12.5 mg/kg/injection, vehicle: saline
[4] = dose: 0.5 mg/kg/injection, vehicle: saline
[5] = dose: 1.0 mg/kg/injection, vehicle: saline
[6] = dose: 2.0 mg/kg/injection, vehicle: saline
[7] = dose: 4.0 mg/kg/injection, vehicle: saline
[8] = dose: 12.5 mg/kg/injection, vehicle: saline with Tween-80
[9] = dose: 25.0 mg/kg/injection, vehicle: saline with Tween-80
[10] = dose: 50.0 mg/kg/injection, vehicle: saline with Tween-80
[11] = dose: 50.0 mg/kg/injection, vehicle: Klucel (hydroxypropylcellulose) (HPC)
[12] = dose: 100.0 mg/kg/injection, vehicle: Klucel (hydroxypropylcellulose) (HPC)
[13] = dose: 1.25 mg/kg/injection, vehicle: Klucel (hydroxypropylcellulose) (HPC)
[14] = dose: 2.5 mg/kg/injection, vehicle: Klucel (hydroxypropylcellulose) (HPC)
[15] = dose: 100.0 mg/kg/injection, vehicle: saline
[16] = dose: 200.0 mg/kg/injection, vehicle: saline
[17] = dose: 3.13 mg/kg/injection, vehicle: saline with Tween-80
[18] = dose: 6.25 mg/kg/injection, vehicle: saline with Tween-80

Measured: T/C

COC(=O)Nc1cccc(-c2nc3ccc(NC(=O)OC)cc3c(=O)n2-c2ccccc2)c1
inactive: dose: 8.0 mg/kg/injection, vehicle: Klucel (hydroxypropylcellulose) (HPC) 95 % of control | dose: 8.0 mg/kg/injection, vehicle: saline 92 % of control | dose: 16.0 mg/kg/injection, vehicle: Klucel (hydroxypropylcellulose) (HPC) 92 % of control | dose: 16.0 mg/kg/injection, vehicle: saline 97 % of control | dose: 32.0 mg/kg/injection, vehicle: Klucel (hydroxypropylcellulose) (HPC) 99 % of control | dose: 32.0 mg/kg/injection, vehicle: saline 109 % of control | dose: 64.0 mg/kg/injection, vehicle: Klucel (hydroxypropylcellulose) (HPC) 109 % of control | dose: 64.0 mg/kg/injection, vehicle: saline 108 % of control | dose: 128.0 mg/kg/injection, vehicle: saline 115 % of control

OCCN1CCN(CC/C=C2/c3ccccc3Sc3ccc(Cl)cc32)CC1
inactive: [1] 102 % of control | [2] 111 % of control | dose: 3.12 mg/kg/injection, vehicle: saline 98 % of control | dose: 6.25 mg/kg/injection, vehicle: saline 101 % of control | [3] 100 % of control

OC(C1CO1)C(O)C1CO1 (stereo not given)
inactive: dose: 0.25 mg/kg/injection, vehicle: saline 93 % of control | [4] 94 % of control and 107 % of control | [5] 100 % of control and 113 % of control | [6] 95 % of control | [7] 121 % of control

[Cl][Hg][Cl]
inactive: dose: 0.2 mg/kg/injection, vehicle: saline 95 % of control | dose: 0.4 mg/kg/injection, vehicle: saline 99 % of control | [1] 93 % of control | [2] 93 % of control

COc1ccc(OC)c(/C=C/c2ccnc3ccccc23)c1
inactive: [8] 94 % of control and 100 % of control | [9] 104 % of control and 117 % of control | [10] 94 % of control and 112 % of control | dose: 100.0 mg/kg/injection, vehicle: saline with Tween-80 102 % of control and 109 % of control | dose: 200.0 mg/kg/injection, vehicle: saline with Tween-80 101 % of control and 109 % of control | dose: 400.0 mg/kg/injection, vehicle: saline with Tween-80 104 % of control and 119 % of control

CC(C)CCCCCCCCCCCCC(=O)NCC(=O)NC1C(O)C(O)C(Nc2ncnc3nc[nH]c23)OC1C(O)CO (stereo not given)
inactive: dose: 0.25 mg/kg/injection, vehicle: Klucel (hydroxypropylcellulose) (HPC) 102 % of control | dose: 1.0 mg/kg/injection, vehicle: Klucel (hydroxypropylcellulose) (HPC) 90 % of control | dose: 2.0 mg/kg/injection, vehicle: Klucel (hydroxypropylcellulose) (HPC) 93 % of control

CN=C(N)N/N=C(\C)c1ccc2oc3ccc(/C(C)=N/NC(N)=NC)cc3c2c1
inactive: [8] 98 % of control | [9] 118 % of control

Cc1ccc(S(=O)(=O)NC(=O)C2C(=O)CC3(CCCCC3)CC2=O)cc1
inactive: [11] 105 % of control | [12] 101 % of control

O=C1C=CC(=O)N1c1ccc(Cl)cc1
inactive: [13] 100 % of control | [14] 95 % of control | dose: 5.0 mg/kg/injection, vehicle: Klucel (hydroxypropylcellulose) (HPC) 96 % of control | dose: 10.0 mg/kg/injection, vehicle: Klucel (hydroxypropylcellulose) (HPC) 107 % of control

CC(C)C(N)C(=O)Nc1nncs1 (stereo not given)
inactive: [3] 104 % of control | dose: 25.0 mg/kg/injection, vehicle: saline 106 % of control | dose: 50.0 mg/kg/injection, vehicle: saline 106 % of control | [15] 115 % of control | [16] 95 % of control

COc1cccc2c1C(=O)c1c(O)c3c(c(O)c1C2=O)C[C@@](O)(C(=O)CO)C[C@@H]3OC1CC(N)CC(C)O1 (stereo not given in full)
inactive: dose: 0.18 mg/kg/injection, vehicle: water 108 % of control | dose: 0.37 mg/kg/injection, vehicle: water 112 % of control

CCC1CN2C(=N1)c1ccccc1-c1cc(Cl)ccc12 (stereo not given)
inactive: [17] 104 % of control and 118 % of control | [18] 109 % of control and 90 % of control | [8] 100 % of control | [9] 94 % of control and 107 % of control | [10] 102 % of control and 122 % of control

COc1cc2c(c(OC)c1O)-c1ccc(OC)c(=O)cc1[C@@H](NC(=O)C(F)(F)F)CC2
inactive: dose: 0.62 mg/kg/injection, vehicle: Klucel (hydroxypropylcellulose) (HPC) 101 % of control | [13] 87 % of control | [14] 88 % of control

CN(C1=NS(=O)(=O)N=C(N(C)c2ccccc2)O1)c1ccccc1
inactive: dose: 12.5 mg/kg/injection, vehicle: Klucel (hydroxypropylcellulose) (HPC) 97 % of control | dose: 25.0 mg/kg/injection, vehicle: Klucel (hydroxypropylcellulose) (HPC) 102 % of control | [11] 97 % of control | [12] 99 % of control | dose: 200.0 mg/kg/injection, vehicle: Klucel (hydroxypropylcellulose) (HPC) 117 % of control | dose: 400.0 mg/kg/injection, vehicle: Klucel (hydroxypropylcellulose) (HPC) 102 % of control

Nc1n[nH]c(N)n1
inactive: [15] 90 % of control | [16] 103 % of control | dose: 400.0 mg/kg/injection, vehicle: saline 96 % of control | dose: 800.0 mg/kg/injection, vehicle: saline 119 % of control

COCC(O)Cn1ccnc1[N+](=O)[O-] (stereo not given)
inactive: dose: 12.5 mg/kg/injection, vehicle: water 96 % of control | dose: 25.0 mg/kg/injection, vehicle: water 92 % of control | dose: 50.0 mg/kg/injection, vehicle: water 96 % of control | dose: 100.0 mg/kg/injection, vehicle: water 100 % of control | dose: 200.0 mg/kg/injection, vehicle: water 92 % of control | dose: 400.0 mg/kg/injection, vehicle: water 96 % of control

N[C@H](C(=O)O)[C@@H]1CC(Cl)=NO1
inactive: [4] 124 % of control | [5] 103 % of control | [6] 111 % of control | [7] 115 % of control

Nc1nc(N)c2c(Cl)c(CNc3ccc(Cl)c(Cl)c3)ccc2n1
inactive: [17] 102 % of control | [18] 99 % of control | [8] 108 % of control | [9] 111 % of control | [10] 98 % of control
